Assay results published in article PMC3777854 (Journal of clinical pharmacology, 2013).
Entries after “also recorded” stand apart in the source; their conditions may differ. Marks after values point to notes of the source that are not given here. Square brackets hold non-standard residues; d marks the D form. Peptide text beside a SMILES is read from it. * marks the point of attachment. Dolaproine = CO[C@@H]([C@@H]1CCCN1)[C@@H](C)C(=O)O; Dil = CC[C@H](C)[C@H](NC)[C@@H](CC(=O)O)OC; X1 = C[C@@H](N*)[C@@H](O)c1ccccc1; NMeV = CN[C@H](C(=O)O)C(C)C

Tests used:
[1] = tested on: CYP3A; assay: Effect of ketoconazole on brentuximab vedotin; assay type: in vivo, human; details: for MMAE Tmax: median (range); for MMAE Tmax / MMAE Cmax: n=16
[2] = tested on: CYP3A; details: not of this paper; cited from earlier work
[3] = tested on: CYP3A; assay: Effect of brentuximab vedotin on midazolam PK; details: brentuximab vedotin 1.8 mg/kg; midazolam as probe substrate
[4] = tested on: CYP3A; assay: Effect of rifampin on brentuximab vedotin; assay type: in vivo, human; details: for MMAE Tmax: median (range)
[5] = on a mass basis; cited from earlier work
[6] = Excretion of MMAE in urine and feces; assay type: in vivo, human

CC[C@H](C)[C@@H]([C@@H](CC(=O)N1CCC[C@H]1[C@H](OC)[C@@H](C)C(=O)N[C@H](C)[C@@H](O)c1ccccc1)OC)N(C)C(=O)[C@@H](NC(=O)[C@@H](NC)C(C)C)C(C)C [MMAE, monomethyl auristatin E] (H-[NMeV]V[Dil][Dolaproine]-X1)
MMAE AUC0-∞ ([1]; brentuximab vedotin 1.2 mg/kg IV alone, plasma, geometric mean (%CV), n=14): 26.65 (71) d·ng/mL | MMAE t1/2 ([1]; brentuximab vedotin 1.2 mg/kg alone, geometric mean (%CV), n=14): 3.06 (13) d | MMAE Tmax ([1]; brentuximab vedotin 1.2 mg/kg alone): 1.97 (0.97, 6.99) ^a d | MMAE Cmax ([1]; brentuximab vedotin 1.2 mg/kg alone, plasma, geometric mean (%CV)): 4.11 (71) ng/mL | MMAE exposures higher when ketoconazole was coadministered ([1]; brentuximab vedotin 1.2 mg/kg with ketoconazole vs alone): ~ 34% | MMAE t1/2 ([1]; brentuximab vedotin 1.2 mg/kg with ketoconazole, geometric mean (%CV), n=14): 3.47 (66) d | MMAE Tmax ([1]; brentuximab vedotin 1.2 mg/kg with ketoconazole): 2.45 (0.22, 4.06) ^a d | MMAE Cmax ([1]; brentuximab vedotin 1.2 mg/kg with ketoconazole, plasma, geometric mean (%CV)): 5.13 (114) ng/mL | potential increase of MMAE AUC0-∞ by coadministration of ketoconazole ([1]; in Cycle 1, exploratory analysis of the period effect): ~ 73% | expected increase in MMAE levels with ketoconazole ([1]; later cycles, relative to Cycle 1 MMAE levels without ketoconazole): ≤ 38% | CYP3A induction (in vitro studies) [2]: does not induce CYP3A | inhibition or induction of CYP3A in humans (conclusion) [3]: neither inhibitors nor inducers of CYP3A; also recorded: neither an inhibitor nor inducer of CYP3A | MMAE AUC0-∞ ([4]; brentuximab vedotin 1.8 mg/kg IV alone, plasma, geometric mean (%CV), n=14): 40.06 (53) d·ng/mL | MMAE t1/2 ([4]; brentuximab vedotin 1.8 mg/kg alone, geometric mean (%CV), n=14): 3.71 (19) d | MMAE Tmax ([4]; brentuximab vedotin 1.8 mg/kg alone, n=14): 3.00 (0.99, 5.01) ^a d | MMAE Cmax ([4]; brentuximab vedotin 1.8 mg/kg alone, plasma, geometric mean (%CV), n=14): 4.98 (67) ng/mL | MMAE exposures lower when rifampin was coadministered ([4]; brentuximab vedotin 1.8 mg/kg with rifampin vs alone): ~ 46% | MMAE t1/2 ([4]; brentuximab vedotin 1.8 mg/kg with rifampin, geometric mean (%CV), n=14): 3.66 (17) d | MMAE Tmax ([4]; brentuximab vedotin 1.8 mg/kg with rifampin, n=14): 1.49 (0.33, 4.02) ^a d | MMAE Cmax ([4]; brentuximab vedotin 1.8 mg/kg with rifampin, plasma, geometric mean (%CV), n=14): 2.80 (36) ng/mL | MMAE exposures lower than those of the ADC [5]: ~ 2000 fold | number of MMAE metabolites detected in urine and feces ([6]; after concentrating the liquid-liquid extracts ten-fold, LC-MS/MS): 8 | concentration of MMAE in excreta relative to its metabolites ([6]; estimate, metabolites only detected upon 10-fold concentration): at least 10 fold | MMAE recovered in urine and feces ([6]; of MMAE received during a brentuximab vedotin 1.8 mg/kg infusion, over a 1-week period, n=8): ~ 23.5% | percentage of recovered MMAE excreted in feces, median ([6]; over 1 week after brentuximab vedotin 1.8 mg/kg, remainder in urine): 72%
